{"source": "paper PMC8069214", "about": "“Synthesis, Biological Evaluation, and Molecular Modeling of Aza-Crown Ethers” (Molecules, 2021)", "key": {"[1]": {"target": "T1, FPR2 (Homo sapiens, UniProt P25090)", "T1 construct": "expressed in transfected cells", "T1 sequence (P25090 1-351)": "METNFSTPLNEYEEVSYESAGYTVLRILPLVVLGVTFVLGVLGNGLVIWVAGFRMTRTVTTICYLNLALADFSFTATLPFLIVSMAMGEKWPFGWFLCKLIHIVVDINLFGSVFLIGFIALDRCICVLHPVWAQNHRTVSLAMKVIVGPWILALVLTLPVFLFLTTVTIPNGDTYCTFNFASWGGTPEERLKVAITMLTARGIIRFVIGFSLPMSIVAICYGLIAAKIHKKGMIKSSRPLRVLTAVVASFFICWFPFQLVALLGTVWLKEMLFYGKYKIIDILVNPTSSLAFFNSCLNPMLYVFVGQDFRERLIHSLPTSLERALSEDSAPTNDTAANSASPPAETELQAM", "experiment": "Inhibition of WKYMVM-induced [Ca2+]i flux in FPR2-HL60 cells", "assay_type": "cell-based", "settings": "10 min preincubation, 5 nM WKYMVM; N.A. = no activity at < 50 µM; read-out: FPR1/FPR2 Agonist-Induced Δ[Ca^2+]i FPR2-HL60 IC50", "experimental": "(§1) Since these compounds elevated neutrophil [Ca^2+]i, and cytosolic Ca^2+ flux is a key component of neutrophil activation, we evaluated if they could alter neutrophil activation by FPR1 or FPR2 agonists. Neutrophils and FPR-transfected HL60 cells were preincubated for 10 min with crown ether compounds, and [Ca^2+]i flux was stimulated with either an FPR1 agonist (fMLF for human neutrophils and FPR1-HL60 cells) or an FPR2 agonist (WKYMVM for FPR2-HL60 cells).\nHuman promyelocytic leukemia HL60 cells stably transfected with FPR1 (FPR1-HL60 cells) or FPR2 (FPR2-HL60 cells) (kind gifts from Dr. Marie-Josephe Rabiet, INSERM, Grenoble, France) were cultured in RPMI 1640 medium supplemented with 10% heat-inactivated fetal calf serum, 10 mM HEPES, 100 μg/mL streptomycin, 100 U/mL penicillin, and G418 (1 mg/mL). Although stable cell lines are cultured under G418 selection pressure, G418 may affect some assays, so it was removed in the last round of culture before assays were performed.\n(§2) Changes in neutrophil intracellular Ca^2+ concentrations ([Ca^2+]i) were measured with a FlexStation 3 scanning fluorometer (Molecular Devices, Sunnyvale, CA, USA). Briefly, human neutrophils were suspended in HBSS^−, loaded with Fluo-4AM at a final concentration of 1.25 μg/mL, and incubated for 30 min in the dark at 37 °C. After dye loading, the cells were washed with HBSS^−, resuspended in HBSS^+, separated into aliquots, and loaded into the wells of flat-bottom, half-area well black microtiter plates (2 × 10^5 cells/well). To assess the direct effects of test compounds on Ca^2+ flux, the compounds were added to the wells (final concentration of DMSO was 1%), and changes in fluorescence were monitored (λex = 485 nm, λem = 538 nm) every 5 s for 240 s at room temperature after addition of the test compound. To evaluate inhibitory effects of the compounds on FPR1/FPR2-dependent Ca^2+ flux, the compounds were added to the wells (final concentration of DMSO was 1%) with cells (human neutrophils or FPR1/FPR2 HL60 cells). The samples were preincubated for 10 min, followed by addition of 5 nM fMLF (for human neutrophils or FPR1-HL60 cells) or 5 nM WKYMVM (for FPR2-HL60 cells). The maximum change in fluorescence, expressed in arbitrary units over baseline, was used to determine the agonist response. Responses were normalized to the response induced by 5 nM fMLF or 5 nM WKYMVM, which were assigned as 100%. Curve fitting (at least five or six points) and calculation of median effective concentration values (EC50 or IC50) were performed by nonlinear regression analysis of the dose–response curves generated using Prism 7 (GraphPad Software, Inc., San Diego, CA, USA). Efficacy was determined by comparing individual responses activated by the test compounds to that induced by a positive control (5 nM fMLF), which was assigned a value of 100%."}, "[2]": {"tested_on": "human neutrophils", "experiment": "PMA-induced ROS production (L-012 chemiluminescence)", "assay_type": "cell-based", "settings": "Neutrophil, 200 nM PMA, N.A. = no activity at < 50 µM", "text": "To evaluate if the crown ethers could also disrupt GPCR-independent functional activity, we evaluated the effects of these compounds on phorbol 12-myristate 13-acetate (PMA)-stimulated reactive oxygen species (ROS) production. […] A representative concentration-dependent response for the inhibition of PMA-stimulated neutrophil ROS production by compound 15 is shown in Figure 2B. Since ROS production in neutrophils also requires increased [Ca^2+]i, the results again confirm that the impact of these compounds on Ca^2+ flux kinetics can alter neutrophil function.\nROS production was determined by monitoring L-012-enhanced chemiluminescence, which represents a sensitive and reliable method for detecting superoxide anion (O2^−.) production. Human neutrophils were resuspended at 2 × 10^5 cells/mL in HBSS^+ supplemented with 40 µM L-012. Cells (100 µL) were aliquoted into wells of 96-well flat-bottomed microtiter plates containing test compounds at different concentrations (final DMSO concentration of 1%). Cells were preincubated for 10 min, and 200 nM PMA was added to each well to stimulate ROS production. Luminescence was monitored for 120 min (2-min intervals) at 37 °C using a Fluroscan Ascent FL microtiter plate reader (Thermo Electron, Waltham, MA, USA). The curve of light intensity (in relative luminescence units) was plotted against time, and the area under the curve was calculated as total luminescence. The compound concentration that inhibited ROS production by 50% of the PMA-induced response (positive control) was determined by graphing the percentage inhibition of ROS production versus the logarithm of concentration of test sample (IC50). Each curve was determined using five to seven concentrations."}, "[3]": {"tested_on": "human neutrophils", "experiment": "Inhibition of fMLF-induced [Ca2+]i flux in human neutrophils", "assay_type": "cell-based", "settings": "Neutrophil, 10 min preincubation, 5 nM fMLF, N.A. = no activity at < 50 µM, read-out: FPR1/FPR2 Agonist-Induced Δ[Ca^2+]i Neutrophils IC50", "experimental": "as §1, §2"}}}
{"smiles": "O=C(CC12CC3CC(CC(C3)C1)C2)N1CCOCCOCCN(C(=O)CC23CC4CC(CC(C4)C2)C3)CCOCC1", "note": "[Compound 15, N,N’-bis[2-(1-adamantyl)acetyl]-4,10-diaza-15-crown-5]", "values": [{"measurement": "IC50", "setting": "[1]", "value": "7.2 ± 1.7", "unit": "µM"}, {"measurement": "IC50", "setting": "[2]", "value": "4.1 ± 0.1", "unit": "µM"}, {"measurement": "melting point", "value": "72 to 76", "unit": "°C"}, {"measurement": "IC50", "setting": "[3]", "value": "4.1 ± 0.6", "unit": "µM"}]}
{"smiles": "O=C(CC12CC3CC(CC(C3)C1)C2)N1CCOCCOCCN(C(=O)CC23CC4CC(CC(C4)C2)C3)CCOCCOCC1", "note": "[Compound 17, N,N’-bis[2-(1-adamantyl)acetyl]-4,13-diaza-18-crown-6]", "values": [{"measurement": "IC50", "setting": "[1]", "value": "7.6 ± 1.9", "unit": "µM"}, {"measurement": "IC50", "setting": "[2]", "value": "8.2 ± 0.1", "unit": "µM"}, {"measurement": "IC50", "setting": "[3]", "value": "1.5 ± 0.4", "unit": "µM"}]}
{"smiles": "O=C(N1CCOCCOCCN(C(=O)C23CC4CC(CC(C4)C2)C3)CCOCC1)C12CC3CC(CC(C3)C1)C2", "note": "[Compound 13, N,N’-bis[1-oxo-1-(1-adamantyl)methyl]-4,10-diaza-15-crown-5]", "values": [{"measurement": "IC50", "setting": "[1]", "value": "32.6 ± 4.5", "unit": "µM"}, {"measurement": "IC50", "setting": "[2]", "value": "25.9 ± 2.7", "unit": "µM"}, {"measurement": "IC50", "setting": "[3]", "value": "7.4 ± 1.3", "unit": "µM"}]}
{"smiles": "O=C(N1CCOCCOCCOCCN(C(=O)C23CC4CC(CC(C4)C2)C3)CCOCC1)C12CC3CC(CC(C3)C1)C2", "note": "[Compound 14, N,N’-bis[1-oxo-1-(1-adamantyl)methyl]-4,10-diaza-18-crown-6]", "values": [{"measurement": "IC50", "setting": "[1]", "value": "8.3 ± 2.3", "unit": "µM"}, {"measurement": "IC50", "setting": "[2]", "value": "21.9 ± 2.2", "unit": "µM"}, {"measurement": "IC50", "setting": "[3]", "value": "3.5 ± 0.4", "unit": "µM"}]}
